Key:
[1] = test system: patients with treatment-resistant major depressive disorder (TRD); test: Phase 1/2 clinical trial of inhaled 5-MeO-DMT in TRD (MADRS, BPRS, safety); conditions: for patients experiencing at least one ADR: n=4, all ADRs mild and resolved spontaneously
Experimental: Patients were assigned to different groups. In the context of the present invention, the group who received a single, 12 mg dose and the group who underwent an intra-day individualized dosing regimen (IDR) that allowed for multiple, escalating doses (6 mg, 12 mg and 18 mg) within a single day, driven by the intensity of the patient-reported psychedelic experience are of interest.
The data gathered include the assessment of the treated patients against several scales including the Montgomery-Åsberg Depression Rating Scale (MADRS) and the Brief Psychiatric Rating Scale (BPRS).
This trial was designed in two parts. Part A was an open-label, single-arm, single-dose Phase 1 trial with two dose levels (12 mg (n=4) and 18 mg (n=4)). […] The primary endpoint of Part B was to assess the effects on the severity of depression, as assessed by the proportion of patients in remission on day seven after dosing, defined as a MADRS total score of less than or equal to 10.

[2] = Pharmacokinetics of 5-MeO-DMT and bufotenine after inhalation; format: in vivo, human
Experimental: Blood samples were obtained at 1; 2; 4; 7; 10; 15; 20; 30; 45 min and 1; 1.5; 2; 3; 4 hours after administration.
PK parameters were generated by algebraic analysis of the concentration versus time plots for each individual. The analysis was carried out using the software Phoenix WinNonlin 6.3.

[3] = TRD, IDR 6/12/18 mg inhaled, sum n=8, 2 h after last dose, baseline 26
[4] = TRD, IDR 6/12/18 mg inhaled, sum n=8, 2 h after last dose, baseline 28
[5] = TRD, IDR 6/12/18 mg inhaled, sum n=8, 3 h after last dose, baseline 37
[6] = TRD, IDR 6/12/18 mg inhaled, sum n=8, day 1, baseline 25
[7] = TRD, IDR 6/12/18 mg inhaled, sum n=8, day 1, baseline 26
[8] = TRD, IDR 6/12/18 mg inhaled, sum n=8, day 1, baseline 37
[9] = TRD, IDR 6/12/18 mg inhaled, sum n=8, day 7, baseline 25
[10] = TRD, IDR 6/12/18 mg inhaled, sum n=8, day 7, baseline 26
[11] = TRD, IDR 6/12/18 mg inhaled, sum n=8, day 7, baseline 30
[12] = TRD, IDR 6/12/18 mg inhaled, sum n=8, day 7, baseline 37
[13] = TRD, single 12 mg inhaled, sum n=4, 2 h after dose, baseline 13
[14] = TRD, single 12 mg inhaled, sum n=4, 2 h after dose, baseline 16
[15] = TRD, single 12 mg inhaled, sum n=4, 3 h after dose, baseline 18
[16] = TRD, single 12 mg inhaled, sum n=4, 3 h after dose, baseline 25
[17] = TRD, single 12 mg inhaled, sum n=4, day 1, baseline 12
[18] = TRD, single 12 mg inhaled, sum n=4, day 1, baseline 13
[19] = TRD, single 12 mg inhaled, sum n=4, day 1, baseline 16
[20] = TRD, single 12 mg inhaled, sum n=4, day 1, baseline 25
[21] = TRD, single 12 mg inhaled, sum n=4, day 7, baseline 12
[22] = TRD, single 12 mg inhaled, sum n=4, day 7, baseline 13
[23] = TRD, single 12 mg inhaled, sum n=4, day 7, baseline 16
[24] = TRD, single 12 mg inhaled, sum n=4, day 7, baseline 25

Structure (SMILES): COc1ccc2[nH]cc(CCN(C)C)c2c1 [5-MeO-DMT]
- patients experiencing at least one ADR ([1]; Part A, single 12 mg inhaled): 3 of 4
- SAEs ([1]; Part A, single 12 mg or 18 mg inhaled): No SAEs were reported
- patients experiencing at least one ADR ([1]; Part A, single 18 mg inhaled): 3 of 4
- SAEs ([1]; Part B, IDR 6/12/18 mg inhaled, n=8): No SAEs were reported
- MADRS Suicidal Thoughts score ([1]; TRD, IDR 6/12/18 mg inhaled, sum n=8, 2 h after last dose, baseline 11): 3
- MADRS Inner Tension percentage improvement [1, 3]: 58%
- MADRS Inner Tension score [1, 3]: 11
- MADRS Lassitude score ([1]; TRD, IDR 6/12/18 mg inhaled, sum n=8, 2 h after last dose, baseline 27): 10
- MADRS Pessimistic Thoughts percentage improvement [1, 4]: 75.00%
- MADRS Pessimistic Thoughts score [1, 4]: 7
- MADRS Concentration Difficulties score ([1]; TRD, IDR 6/12/18 mg inhaled, sum n=8, 2 h after last dose, baseline 30): 11
- MADRS Inability to Feel score ([1]; TRD, IDR 6/12/18 mg inhaled, sum n=8, 2 h after last dose, baseline 36): 12
- BPRS Emotional Withdrawal score ([1]; TRD, IDR 6/12/18 mg inhaled, sum n=8, 3 h after last dose, baseline 13): 8
- BPRS Blunted Affect score ([1]; TRD, IDR 6/12/18 mg inhaled, sum n=8, 3 h after last dose, baseline 15): 11
- BPRS Tension score ([1]; TRD, IDR 6/12/18 mg inhaled, sum n=8, 3 h after last dose, baseline 16): 11
- BPRS Guilt Feelings score ([1]; TRD, IDR 6/12/18 mg inhaled, sum n=8, 3 h after last dose, baseline 34): 14
- BPRS Anxiety percentage improvement [1, 5]: 49%
- BPRS Anxiety score [1, 5]: 19
- MADRS Suicidal Thoughts score ([1]; TRD, IDR 6/12/18 mg inhaled, sum n=8, day 1, baseline 11): 1
- BPRS Emotional Withdrawal score ([1]; TRD, IDR 6/12/18 mg inhaled, sum n=8, day 1, baseline 13): 8
- BPRS Blunted Affect score ([1]; TRD, IDR 6/12/18 mg inhaled, sum n=8, day 1, baseline 15): 8
- BPRS Tension score ([1]; TRD, IDR 6/12/18 mg inhaled, sum n=8, day 1, baseline 16): 11
- MADRS Reduced Sleep percentage improvement [1, 6]: 52%
- MADRS Reduced Sleep score [1, 6]: 12
- MADRS Inner Tension percentage improvement [1, 7]: 77%
- MADRS Inner Tension score [1, 7]: 6
- MADRS Lassitude score ([1]; TRD, IDR 6/12/18 mg inhaled, sum n=8, day 1, baseline 27): 5
- MADRS Pessimistic Thoughts score ([1]; TRD, IDR 6/12/18 mg inhaled, sum n=8, day 1, baseline 28): 4
- MADRS Concentration Difficulties score ([1]; TRD, IDR 6/12/18 mg inhaled, sum n=8, day 1, baseline 30): 1
- BPRS Guilt Feelings score ([1]; TRD, IDR 6/12/18 mg inhaled, sum n=8, day 1, baseline 34): 11
- MADRS Inability to Feel score ([1]; TRD, IDR 6/12/18 mg inhaled, sum n=8, day 1, baseline 36): 2
- BPRS Anxiety percentage improvement [1, 8]: 57%
- BPRS Anxiety score [1, 8]: 16
- MADRS Suicidal Thoughts score ([1]; TRD, IDR 6/12/18 mg inhaled, sum n=8, day 7, baseline 11): 3
- BPRS Emotional Withdrawal score ([1]; TRD, IDR 6/12/18 mg inhaled, sum n=8, day 7, baseline 13): 8
- BPRS Blunted Affect score ([1]; TRD, IDR 6/12/18 mg inhaled, sum n=8, day 7, baseline 15): 8
- BPRS Tension score ([1]; TRD, IDR 6/12/18 mg inhaled, sum n=8, day 7, baseline 16): 10
- MADRS Reduced Sleep percentage improvement [1, 9]: 64%
- MADRS Reduced Sleep score [1, 9]: 9
- MADRS Inner Tension percentage improvement [1, 10]: 54%
- MADRS Inner Tension score [1, 10]: 12
- MADRS Lassitude score ([1]; TRD, IDR 6/12/18 mg inhaled, sum n=8, day 7, baseline 27): 3
- MADRS Pessimistic Thoughts score ([1]; TRD, IDR 6/12/18 mg inhaled, sum n=8, day 7, baseline 28): 3
- MADRS Concentration Difficulties percentage improvement [1, 11]: 70.00%
- MADRS Concentration Difficulties score [1, 11]: 9
- BPRS Guilt Feelings score ([1]; TRD, IDR 6/12/18 mg inhaled, sum n=8, day 7, baseline 34): 10
- MADRS Inability to Feel score ([1]; TRD, IDR 6/12/18 mg inhaled, sum n=8, day 7, baseline 36): 6
- BPRS Anxiety percentage improvement [1, 12]: 54%
- BPRS Anxiety score [1, 12]: 17
- MADRS Suicidal Thoughts score ([1]; TRD, single 12 mg inhaled, sum n=4, 2 h after dose, baseline 8): 3
- MADRS Inner Tension percentage improvement [1, 13]: 85%
- MADRS Inner Tension score [1, 13]: 2
- MADRS Concentration Difficulties score [1, 14]: 7
- MADRS Inability to Feel score [1, 14]: 9
- MADRS Lassitude score [1, 14]: 10
- MADRS Pessimistic Thoughts percentage improvement [1, 14]: 50.00%
- MADRS Pessimistic Thoughts score [1, 14]: 8
- BPRS Blunted Affect score ([1]; TRD, single 12 mg inhaled, sum n=4, 3 h after dose, baseline 11): 8
- BPRS Emotional Withdrawal score ([1]; TRD, single 12 mg inhaled, sum n=4, 3 h after dose, baseline 13): 11
- BPRS Tension score ([1]; TRD, single 12 mg inhaled, sum n=4, 3 h after dose, baseline 14): 9
- BPRS Guilt Feelings percentage improvement [1, 15]: 50.00%
- BPRS Guilt Feelings score [1, 15]: 9
- BPRS Anxiety percentage improvement [1, 16]: 56%
- BPRS Anxiety score [1, 16]: 11
- MADRS Suicidal Thoughts score ([1]; TRD, single 12 mg inhaled, sum n=4, day 1, baseline 8): 5
- BPRS Blunted Affect score ([1]; TRD, single 12 mg inhaled, sum n=4, day 1, baseline 11): 6
- MADRS Reduced Sleep percentage improvement [1, 17]: 17%
- MADRS Reduced Sleep score [1, 17]: 10
- BPRS Emotional Withdrawal score [1, 18]: 8
- MADRS Inner Tension percentage improvement [1, 18]: 77%
- MADRS Inner Tension score [1, 18]: 3
- BPRS Tension score ([1]; TRD, single 12 mg inhaled, sum n=4, day 1, baseline 14): 6
- MADRS Concentration Difficulties score [1, 19]: 2
- MADRS Inability to Feel score [1, 19]: 1
- MADRS Lassitude percentage improvement [1, 19]: 100.00%
- MADRS Lassitude score [1, 19]: 0
- MADRS Pessimistic Thoughts score [1, 19]: 7
- BPRS Guilt Feelings score ([1]; TRD, single 12 mg inhaled, sum n=4, day 1, baseline 18): 5
- BPRS Anxiety percentage improvement [1, 20]: 76%
- BPRS Anxiety score [1, 20]: 6
- MADRS Suicidal Thoughts score ([1]; TRD, single 12 mg inhaled, sum n=4, day 7, baseline 8): 7
- BPRS Blunted Affect score ([1]; TRD, single 12 mg inhaled, sum n=4, day 7, baseline 11): 5
- MADRS Reduced Sleep percentage improvement [1, 21]: 50%
- MADRS Reduced Sleep score [1, 21]: 6
- BPRS Emotional Withdrawal score [1, 22]: 6
- MADRS Inner Tension percentage improvement [1, 22]: 62%
- MADRS Inner Tension score [1, 22]: 5
- BPRS Tension score ([1]; TRD, single 12 mg inhaled, sum n=4, day 7, baseline 14): 6
- MADRS Concentration Difficulties score [1, 23]: 3
- MADRS Inability to Feel score [1, 23]: 1
- MADRS Lassitude score [1, 23]: 3
- MADRS Pessimistic Thoughts percentage improvement [1, 23]: 50.00%
- MADRS Pessimistic Thoughts score [1, 23]: 8
- BPRS Guilt Feelings score ([1]; TRD, single 12 mg inhaled, sum n=4, day 7, baseline 18): 5
- BPRS Anxiety percentage improvement [1, 24]: 76%
- BPRS Anxiety score [1, 24]: 6
- detectability in the plasma ([2]; 3 hours after inhalation, whole dose range 6, 12, 18 mg): no longer detectable
- pharmacokinetic measurements with uptitration dosing schemes compared with single doses ([2]; inhalation, uptitration): Substantially similar results were obtained
- accumulation upon repeated administration ([2]; repeated inhalation within a time frame of 1 to 4 hours): No accumulation is observed
